From US20240358678A1, “METHODS AND COMPOSITIONS FOR ENHANCING CHEMOTHERAPEUTIC DRUG UPTAKE INTO BRAIN TUMORS” (Brown University, priority 2023, published 2024)
“Also recorded” adds a separate entry of the source.

Columns and labels:
HCMEC/D3 cells = assay: Immunofluorescence staining of HCMEC/D3 endothelial cells; format: cell-based, human; conditions: BIA 1 μM
Experimental: Immunofluorescent (IF) staining: For IF staining of HCMEC/D3 endothelial cells, we coated 8-well Nunc™ Lab-Tek™ chamber slides (Thermo Fisher Scientific) with 1× Type 1 rat-tail collagen (Corning) following provider's instructions. Then, we plated at a density of 50,000 cells/well and left in culture for 72 hours to allow for barrier formation. Next, we treated with BIA or control for 24-48 hours. Cells were then fixed with 10% formalin (Thermo Fisher Scientific) for 10 minutes, permeabilized for 30 minutes using 0.01% Triton X-100 and blocked with 0.1% normal donkey serum (Calbiochem) for 1 hour in 0.025% Tween-20 (Thermo Fisher Scientific) in Phosphate-Buffered Saline (PBS) (Gibco). Then, primary antibodies were added: mouse anti-CDH5 (VE-cadherin, BioLegend) 1:100, rabbit antiClaudin-5 (Thermo Fisher Scientific) 1:100, and mouse anti-ZO-1 (Invitrogen) 1:100, and incubated overnight in the cold. Next day, secondary antibodies were used for 2 hours at room temperature: Alexa Fluor 594 anti-mouse (1:500), Alexa Fluor 594 anti-rabbit (1:500), and Alexa Fluor 647 anti-mouse (1:500), all of these Thermo Fisher Scientific. For cytoskeleton staining Phalloidin-iFluor 488 (Abcam) 1:1000 for 30 minutes and nuclei staining using Hoechst 33342 (Thermo Fisher Scientific) 1:1000 for 5 minutes, at room temperature.

G34 GBM cells = assay: Real-time PCR in G34-PCDH neurosphere GBM cells; format: cell-based, human; conditions: BIA 2 μM, 24 hours
Experimental: Real-time PCR: Total RNA from GBM and HCMEC/D3 cells was obtained and processed as indicated above. For cDNA generation, we used 1 μg of RNA and processed with the iScript™ cDNA synthesis kit (BioRad), following the protocol indicated by the provider. All primers were designed using NCBI Primer-Blast tool. Detailed information on primer sequences can be found in FIG. 25 (Supplementary Table 3). Gene expression levels were quantified using PowerUp SYBR Green Master Mix (Applied Biosciences) on QuantStudio 6 Pro System (Applied Biosciences), normalized by housekeeping gene GAPDH expression and represented as relative expression using comparative ΔΔCT method.

BBB spheroids = BBB spheroids staining and dextran permeability assay; format: cell-based, human; conditions: BIA 72 hours
Experimental: BBB spheroids and dextran permeability assay: BBB spheroids were grown and cultured with a FITC-conjugated (70 kDa) fluorescent dextran (Millipore Sigma) as previously reported.^51,86,87 BBB spheroids were grown for 48 hours and then treated with BIA at increasing doses for 72 hours. Then, spheroids were collected and stained as indicated above for CDH5 and F-actin (Phalloidin). In the case of fluorescent dextran incubation, BBB spheroids were collected in 1.5 mL microtubes (Eppendorf) and incubated for 3 hours at 37 degrees Celsius. Pictures were taken by confocal microscopy. For dextran permeability measurement, 21 images using Z-stack layers of 5 μm intervals for achieving a total depth of 100 μm within the sphere. Fluorescent-dextran intensity from maximal intensity projection was quantified using Image J (National Institute of Health).

[1] = tested on: G9-PCDH, G34-PCDH and GL-261 GBM tumors; assay: ICP-MS platinum quantification in GBM tumor-bearing mice after BIA and cisplatin; format: in vivo; conditions: G9-PCDH xenograft, increasing BIA doses
Experimental: (§1) In vivo studies: For intra-cranial tumor implantation, GBM neuro-spheres were grown to 70% confluency before dissociated into single cell on the day of surgery. 50,000 cells were resuspended in 3 μl of sterile PBS and injected intracranially into the striatum (2 mm right hemisphere, 1 mm frontal, 3 mm depth from bregma) of mice under anesthesia and stereo-tactically fixed. Tumors were left to grow for approximately 2-3 weeks, depending the cell line. Animals were randomized to treatment groups. BIA injections consisted of 20 mg/kg (i.p.), except if indicated otherwise. PPRX-1701 was administered at 20 mg/kg (i.v.) via lateral tail-vein. Cisplatin injections were performed at 5 mg/kg (maximum tolerated dose, i.p.). All GBM tumor murine studies involved continuous condition and weight assessments, with endpoint considered when 20% of weight loss and/or moderate-to-high grimace scale and neurological symptoms were observed.
(§2) ICP-MS for platinum quantification: Mice treated with cisplatin after BIA administration were euthanized, intra-cardially perfused with PBS and tissue harvested to be stored at −80 degrees Celsius. Tissue was processed and platinum (Pt195) was quantified using an Agilent 7900 ICP-MS, as previously described.^42

[2] = tested on: G9-PCDH, G34-PCDH and GL-261 murine GBM tumors; assay: as above; format: in vivo
Experimental: as §1, §2

[3] = tested on: G9-PCDH and G34-PCDH cells; assay: Platinum levels in GBM cells treated with BIA and cisplatin; format: cell-based, human; conditions: 2 μM BIA and cisplatin simultaneously
[4] = tested on: hCMEC/D3 brain microvascular endothelial cells; assay: ECIS electrical impedance of endothelial monolayers (Example 1); format: cell-based, human; conditions: BiA 1 μM, p<0.05
Experimental: Electrical Impedance Measurements: Human Brain microvascular endothelial cell (purchased from Sciencell) monolayers were plated on special culture chambers on top of opposing circular gold electrodes (Applied Biophysics Inc). Impedance was automatically recorded during cell monolayer formation.
The in vitro effects of indirubin on endothelial monolayer permeability were also assess using Electric Cell-substrate Impedance Sensing (ECIS®) to provide a real-time, label-free, impedance-based study of cell behaviors in tissue culture. BiA (1 μM) was added to endothelial monolayers in an ECIS impedance measurement culture system (Applied Physics).

[5] = tested on: human brain microvascular endothelial cell monolayers; assay: RNA sequencing of HBMEC monolayers (Example 3); format: cell-based; conditions: BiA 1 μM, 24 hours
Experimental: RNA Sequencing (RNAseq): RNA sequencing was performed by the Dana Faber molecular biology core according to their standard methods. RNA was prepared from human brain microvascular endothelial cell monolayers after 24 hours treatment with BiA. EXAMPLE 1 EFFECT OF INDIRUBIN ON THE BLOOD-TUMOR BARRIER (BTB)
In order to assess changes in gene expression profiles induced by alterations to barrier functions induced by indirubin, RNA sequencing was performed RNA prepared from human brain microvascular endothelial cell monolayers after 24 hours treatment with BiA. HBMEC monolayers were treated with BiA (1 μM) for 24 hours and gene expression profiles compared with untreated controls.

CC(=O)ON=C1C(=C2C(=O)Nc3cc(Br)ccc32)Nc2ccccc21 [BIA, 6-bromoindirubin acetoxime]
CDH5 immunofluorescence at the membrane periphery (HCMEC/D3 cells; 24-48 hrs): marked decrease
Claudin-5 immunofluorescence (HCMEC/D3 cells; 48 hours): no difference
ZO-1 immunofluorescence (HCMEC/D3 cells; 48 hours): marked reduction
CDH5 expression (G34 GBM cells): reduced the expression
WNT7B and S1PR3 expression (G34 GBM cells): diminishment
CDH5 expression in BBB spheroids (IF) (BBB spheroids): decreased the expression of CDH5 in a dose-dependent manner
F-actin in BBB spheroids (Phalloidin) (BBB spheroids): reduced considerably
FITC-dextran (70 kDa) permeability of BBB spheroids (BBB spheroids; dextran 3 hours): dose-dependent increase in permeability
BIA dose showing significant cisplatin accumulation in the tumor [1]: above 10 mg/kg
platinum uptake in contralateral healthy brain regions ([2]; cisplatin 5 mg/kg 24 hours after BIA): no significant difference of uptake
cisplatin (platinum) accumulation in tumor after BIA pre-treatment ([2]; cisplatin 5 mg/kg 24 hours after BIA, 5 hours circulation): significant cisplatin intra-tumoral accumulation
platinum accumulation in peripheral tissues such as heart or liver ([2]; cisplatin 24 hours after BIA): no difference in platinum accumulation
cellular drug (platinum) accumulation due to BIA addition [3]: did not observe any advantage in drug accumulation
trans-endothelial electrical resistance / impedance [4]: significantly decrease trans-endothelial electrical resistance; also recorded: diminishes electrical impedance
gene expression pathways (TGF-β, Wnt signaling, angiogenesis/BTB) [5]: alteration to major pathways
